Results taken from patent US8193224B2, “Medicinal composition for prevention or treatment of parasitic protozoan infection” (Fujifilm Corporation, priority 2004, dated 2012).

Assays:
[1] = test system: Leishmania donovani (MHOM/ET/67/L82 strain); assay: Leishmania protozoa growth inhibition screening test; type: cell-based; conditions: Leishmania donovani; MHOM/ET/67/L82 strain amastigote, pH 5.4, 72 hours, Alamar Blue; read-out: 50% growth inhibition concentration Leishmania donovani
Procedure: In the present example, Leishmania donovani (MHOM/ET/67/L82 strain) was used. Protozoa was subcultured in Syrian Golden hamster, from which an amastigote was obtained. In the experiment, SM medium supplemented with 10% heat-treated bovine fetal serum was used, which was adjusted to pH 5.4, and cultured in an atmosphere of 5% CO2 concentration, at 37° C.
The compounds of the present invention to be used in the present test and the positive target drug (miltefosine) were dissolved in DMSO to make a test solution of a predetermined concentration. After adding a medium containing a predetermined number of protozoa to wells of a 96-well culture plate and pre-treating, concentration of the amastigote was measured with CASY cell analysis system (Scharfe, Germany). Then, test solution containing a drug of a predetermined concentration or a drug-free DMSO was added. Test solutions were taken by duplicates. After culturing the culture plate for 72 hours in an incubator, growth inhibition activity was tested. Test was conducted as follows.
10 μL of Alamar Blue aqueous solution was added to each well, and the resultant was further cultured for 2 hours. Next, the culture plate was placed on a fluorescent micro-plate reader (Spectramax Gemeni XS; US Molecular Device), radiated at an excited wavelength of 536 nm. Fluorescent intensity was measured at 588 nm, and infection rate of leishmania protozoa of the test solution added-group and control was calculated, to obtain a 50% growth inhibition concentration (EC50). Growth inhibition rate (%)={1−(b−a)/(c−a)}×100 a: early infection rate b: infection rate when test solution was added c: infection rate of the control

[2] = test system: Plasmodium falciparum K1 strain; assay: Chloroquine resistant-Plasmodium falciparum growth inhibition screening test; type: cell-based; conditions: for EC50: Plasmodium falciparum, 72 h, chloroquine resistant K1 strain, 3H-hypoxanthine, 48 + 24 hours, read-out: 50% growth inhibition concentration P. falciparum K1; for Selective toxicity: chemotherapy index = EC50 rat L6 cells / EC50 chloroquine resistant P. falciparum
Procedure: In the present example, protozoa of Plasmodium falciparum K1 strain was used. RPMI-1640 medium sterilized with a filter to which human serum was added to be 5%, was used in the experiment. Malarial parasites were cultured under 3% O2 concentration, 4% Co2 concentration, 93% N2 concentration, and at a temperature of 37° C.
The compounds of the present invention to be used in the present test and the positive target drug (chloroquine) were dissolved in DMSO to make a test solution of a predetermined concentration. Cultured malarial parasite infected-erythrocytes were collected by centrifugation, and diluted with non-infected erythrocyte so that the early infection rate is 0.15%. Hematocrit level at that time was 2.5%. 200 μL of malaria infected solution was added to wells of a 96-well culture plate, and adjusted by adding a test solution containing drug of a predetermined concentration or a drug-free DMSO. Test solutions were taken by duplicates. After culturing for 48 hours at 37° C., 0.5 μCi radioactive tritium (3H)-labeled hypoxanthine was added to each well. After further culturing for 24 hours under the same conditions, it was collected on a glass fiber filter and washed with distilled water. Radiation intensity was measured with a beta plate liquid scintillation counter (Wallac), and malarial parasite infection rates of the test solution added group and of the control group were calculated. Growth inhibition rate was calculated with the following formula based on the malarial parasite infection rate obtained in the above, to obtain a 50% growth inhibition concentration (EC50). Growth inhibition rate (%)={1−(b−a)/(c−a)}×100 a: early infection rate b: infection rate when test solution was added c: infection rate of the control

SMILES | EC50 [1] [nM] | EC50 [2] [nM] | Selective toxicity [2]
CCN1C(C)=CS/C1=C\C=c1/s/c(=C\c2sc3ccccc3[n+]2CC)n(CC)c1=O [A-15] | 170 | 76 | 291
CCN1/C(=C/C=c2\s/c(=C\C3=[N+](CC)CCS3)n(CC)c2=O)C=Cc2ccccc21 [A-10] | 150 | 120 | 170
CCN1/C(=C/C=c2\s/c(=C\c3sc4c5ccccc5ccc4[n+]3CC)n(CC)c2=O)Sc2ccc3ccccc3c21 [A-1] | 8.3 | 11 | 2700
